Measured values taken from US8203033B2, “Methods and compositions for providing tolerance to multiple herbicides” (Pioneer Hi-Bred International, Inc., priority 2005, dated 2012).

Legend:
[1] = system: non-glyphosate resistant ryegrass (70-04); experiment: Glyphosate, metsulfuron-methyl and two additives on the control of ryegrass; format: in vivo; details: 0.5 L ha^−1 glyphosate (SCAT)
Protocol: The example was conducted on non-glyphosate resistant ryegrass. As provided in Table 23, all treatments that included glyphosate [180 g a.i. L ha^−1 (0.5 L glyphosate (SCAT®))] plus metsulfuron-methyl (BRUSH-OFF®) (5 and 10 g ha^−1) gave 100% control of the ryegrass.

[2] = system: GAT-HRA transgenic cotton plants; experiment: Greenhouse over-the-top herbicide spray of cotton; format: in vivo, Gossypium hirsutum
Text: (§1) Cotton (Gossypium hirsutum) Coker 312 was transformed with a GAT polynucleotide (gat 4621) together with an Hra polynucleotide (SEQ ID NO:86) both operably linked to strong, constitutive plant viral promoters. The promoter linked to gat4621 contains a duplicated portion of the Strawberry Vein Banding Virus transcript promoter (Wang et al. Virus Genes 20: 11-17, 2000; Genbank X97304). The Hra gene was driven by a duplicated portion of the Mirabilis Mosaic Caulimovirus full-length transcript promoter (U.S. Pat. No. 6,420,547; Dey and Maiti, Transgenics 3:61-70, 1999). The transformation procedure used Agrobacterium tumefaciens containing an expression cassette with the genes to be transferred and cotyledon explant derived callus with some capacity to undergo embryogenesis. The callus was exposed to Agrobacterium for 48-72 hours. The callus was then exposed to selection for transformed cells on 50-200 μg/l chlorosulfuron and/or 50-450 μM glyphosate in solid medium. Glyphosate can also be used in a concentration range of about 5 to about 450 μM. Selection was applied until somatic embryos formed, and selection was again applied at the embryo germination step, and optionally during rooting of plantlets. Over 450 GAT-HRA transformation events were produced using selection with both chlorsulfuron and glyphosate.
(§2) Transformed cotton plants were rooted and then transferred to soil for further growth. Plants were then subjected to herbicide spray treatments in a greenhouse. […] Untransformed Coker 312 control plants were dead 2 weeks after glyphosate application. […] Plants transformed with both GAT and HRA were further subjected to an “over the top” application of the sulfonylurea herbicide rimsulfuron at a rate of 16 g active ingredient/hectare. […] In further experiments 32 g ai/ha rimsulfuron were applied to the cotton.

[3] = system: Untransformed Coker 312 control plants; experiment: Greenhouse over-the-top herbicide spray of cotton; format: in vivo, Gossypium hirsutum
Text: as §1, §2

[4] = system: Hairy Fleabane (Conyza bonariensis); experiment: Glyphosate, metsulfuron-methyl and two additives on the control of hairy fleabane; format: in vivo; details: glyphosate on its own; 10-15 leaf stage
Protocol: This example included the same treatments as used in Example 11, except the treatments were carried out on a glyphosate sensitive biotype of Kleinskraalhans (Conyza bonariensis).

[5] = system: Heterozygous GAT-HRA corn; experiment: Postemergence test of herbicides on corn (fresh weight, visual injury); format: in vivo; details: 3472 g ae/ha
[6] = system: parent elite stiff stalk inbred corn; experiment: as above; format: in vivo; details: 3472 g ae/ha
[7] = system: non-transformed GS3 embryos; experiment: Glyphosate kill curve; format: cell-based, maize; details: about 40 days culture
Protocol: A glyphosate kill curve was established by testing non-transformed embryos response on media with different levels of glyphosate. GS3 embryos were isolated from an immature ear and placed onto media containing glyphosate at 0.0, 0.5, 1.0, and 2.0 mM. After about 40 days culture, the response of the embryos were observed and recorded. Similarly, infected GS3 embryos with the GAT construct were placed onto media containing glyphosate at 0.0, 0.5, 1.0, and 2.0 mM. After about 40 days culture, the response of the infected embryos were observed and recorded (FIG. 7).
Western or PCR analysis has confirmed that these resistant calli were transformed. Currently, GAT has performed consistently as an effective selectable marker with excellent transformation efficiency in both GS3 and introEF09B genotypes (FIG. 10 and Table 45).

[8] = system: GAT-HRA soybeans; experiment: Postemergence herbicide spray of soybeans, visual injury; format: in vivo; details: 35 g/ha
Protocol: (§3) Young regenerated transgenic plants were sprayed with 1× glyphosate (1× rate of glyphosate is 1120 g/ha of glyphosate isopropylamine) to cull segregants. Four replications were performed for each treatment. Plants were then treated with various herbicides, including glyphosate and ALS-inhibitor herbicides.
(§4) Six soybean seeds from each variety to be assayed were planted 1 cm deep in 5.5 (13.97 cm) inch square plastic container of a synthetic growth medium. […] When possible, containers were thinned to two uniform plants. Non-transgenic lines were thinned to two uniform plants per container.
(§5) Results are expressed below in Table 11 as the mean of four replications.

[9] = system: non-transgenic control soybeans; experiment: as above; format: in vivo; details: 35 g/ha
Protocol: as §3, §4, §5

O=C(O)CNCP(=O)(O)O [Glyphosate, N-phosphonomethylglycine]
percentage printed with the plants that died [1]: 12% | plants that eventually died [1]: 15 of the 16 | GAT-HRA transgenic plants that showed no deleterious symptoms ([2]; 1.5 lb acid equivalent per acre, 4-6 leaf stage, 14 days after application): approximately 50% | state of control plants after application ([3]; 1.5 lb acid equivalent per acre, 4-6 leaf stage, 2 weeks after application): dead | percentage printed with the plants killed [4]: 12% | % Visual Injury [5]: 10% | % Visual Injury [6]: 100% | Fresh Weight ([6]; 2 weeks after treatment): 1.0 g | embryos that showed callus initiation ([7]; 0.5 mM glyphosate in medium): about half | callus growth ([7]; 1.0 mM glyphosate in medium): very little callus growth | callus growth ([7]; 2.0 mM glyphosate in medium): very little callus growth

CCS(=O)(=O)c1cccnc1S(=O)(=O)NC(=O)Nc1nc(OC)cc(OC)n1 [Rimsulfuron, N-[[(4,6-dimethoxy-2-pyrimidinyl)amino]carbonyl]-3-(ethylsulfonyl)-2-pyridinesulfonamide]
transgenic plants that showed no deleterious symptoms from the dual herbicide application ([2]; rimsulfuron 16 g active ingredient/hectare after glyphosate 1.5 lb ae/acre, 14 days after rimsulfuron, 28 days after glyphosate): approximately 35% | damage of untransformed plants ([3]; 16 g active ingredient/hectare, in the absence of any glyphosate application): severe damage

COC(=O)c1ccccc1S(=O)(=O)NC(=O)N(C)c1nc(C)nc(OC)n1 [Tribenuron-methyl, methyl 2-[[[[N-(4-methoxy-6-methyl-1,3,5-triazin-2-yl)-N-methylamino]carbonyl]-amino]sulfonyl]benzoate]
damage of GAT- and HRA-containing transgenic soybeans [8]: no significant damage | effect on non-transgenic control soybeans [9]: killed
